What is called IC50 is the point on the concentration scale where inhibition reaches its midpoint.

The test system of assay [1] is Glycine max. Kind of assay: Inhibition of soybean 15-lipoxygenase assessed as rate of disappearance of dissolved oxygen at 25 uM relative to control. More on the design: scale not given: the % may be the effect or the level left.
For assay [2], the target named is T1, Polyunsaturated fatty acid 5-lipoxygenase (Homo sapiens) (UniProt P09917).
T1 sequence (whole entry): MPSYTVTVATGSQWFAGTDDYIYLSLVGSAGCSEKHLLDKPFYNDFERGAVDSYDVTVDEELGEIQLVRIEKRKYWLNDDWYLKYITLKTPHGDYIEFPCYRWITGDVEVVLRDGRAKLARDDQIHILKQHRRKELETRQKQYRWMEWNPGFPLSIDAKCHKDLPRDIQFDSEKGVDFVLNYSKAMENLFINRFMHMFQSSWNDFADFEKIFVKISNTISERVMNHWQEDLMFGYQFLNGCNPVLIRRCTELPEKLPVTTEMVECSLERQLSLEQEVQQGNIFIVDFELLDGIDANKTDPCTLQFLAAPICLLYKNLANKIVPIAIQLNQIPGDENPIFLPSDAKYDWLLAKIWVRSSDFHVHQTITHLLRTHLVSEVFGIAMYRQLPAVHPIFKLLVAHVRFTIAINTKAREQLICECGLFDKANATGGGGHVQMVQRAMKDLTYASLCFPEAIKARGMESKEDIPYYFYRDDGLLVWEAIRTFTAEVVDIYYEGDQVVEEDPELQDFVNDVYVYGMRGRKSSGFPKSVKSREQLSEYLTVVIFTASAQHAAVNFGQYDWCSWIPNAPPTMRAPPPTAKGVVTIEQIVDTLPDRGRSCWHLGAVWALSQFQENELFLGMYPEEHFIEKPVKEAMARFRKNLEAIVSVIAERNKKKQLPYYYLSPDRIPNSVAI
In words: Inhibition of human recombinant 5-lipoxygenase assessed as rate of disappearance of dissolved oxygen at 25 uM relative to control. More on the design: scale not given: the % may be the effect or the level left.

Assay [3] is described as follows: (§1) Inhibition of soybean 15-lipoxygenase. More on the design: species or system Glycine max.
For assay [4], the system named is Glycine max. Kind of assay: Inhibition of soybean 15-lipoxygenase assessed as rate of disappearance of dissolved oxygen at 12.5 uM relative to control. The arrangement: scale not given: the % may be the effect or the level left.
The test system of assay [5] is Glycine max. Kind of assay: Inhibition of soybean 15-lipoxygenase assessed as rate of disappearance of dissolved oxygen at 6.75 uM relative to control. The arrangement: scale not given: the % may be the effect or the level left.
The subject of assay [6] is Glycine max. In words: Inhibition of soybean 15-lipoxygenase assessed as rate of disappearance of dissolved oxygen at 50 uM relative to control. The arrangement: scale not given: the % may be the effect or the level left.
For assay [7], the target named is T1, Polyunsaturated fatty acid 5-lipoxygenase (Homo sapiens). Kind of assay: Inhibition of human recombinant 5-lipoxygenase assessed as rate of disappearance of dissolved oxygen at 50 uM relative to control. More on the design: scale not given: the % may be the effect or the level left.
A short description of assay [8]: Inhibition of cyclooxygenase assessed as rate of disappearance of dissolved oxygen at 50 uM relative to control. More on the design: scale not given: the % may be the effect or the level left.
The nature of assay [9]: Inhibition of cyclooxygenase assessed as rate of disappearance of dissolved oxygen at 25 uM relative to control. More on the design: scale not given: the % may be the effect or the level left.
In assay [10] the test system is Glycine max. Kind of assay: Inhibition of soybean 15-lipoxygenase assessed as rate of disappearance of dissolved oxygen at 100 uM relative to control. More on the design: scale not given: the % may be the effect or the level left.
Assay [11] is described as follows: Inhibition of cyclooxygenase assessed as rate of disappearance of dissolved oxygen at 2.4 uM relative to control. More on the design: scale not given: the % may be the effect or the level left.
The test system of assay [12] is Glycine max. Described as §1.

Activity calls are given as the source filed them. The rule behind the calls is not given here.

For `O=C1CCN(c2ccccc2)N1`, the Activity in the assay with Glycine max [1] is 34%; in assay [2], 55%.

In assay [3], `C[C@H](CC[C@@H](O)[C@@H](O)[C@@H](O)CO)[C@H]1CC[C@]2(C)[C@H]3CC[C@@H]4[C@@]5(C)CCCC(C)(C)[C@@H]5CC[C@@]4(C)[C@]3(C)CC[C@@H]12` [TETRAHYDROXYBACTERIOHOPANE] returned an IC50 of 10 µM. Further, the Activity in the assay on Glycine max [4] is 48%; with Glycine max [5], 68%; in the assay on Glycine max [6] it was 4%; in the assay on Glycine max [1], 15%; in assay [7], 97%; in assay [2] it was 98%. Moreover, the Activity in [8] was determined as 103%; in assay [9], 102%; in the assay on Glycine max [10], 11%.

For `COc1ccc2c(c1)c(CC(=O)O)c(C)n2C(=O)c1ccc(Cl)cc1`, the Activity in assay [11] was determined as 7%.

Regarding `CC(=O)OC[C@H](OC(C)=O)[C@H](OC(C)=O)[C@@H](CC[C@@H](C)[C@H]1CC[C@]2(C)[C@H]3CC[C@@H]4[C@@]5(C)CCCC(C)(C)[C@@H]5CC[C@@]4(C)[C@]3(C)CC[C@@H]12)OC(C)=O`, in the assay with Glycine max [12], the outcome was inactive. Also, the Activity with Glycine max [6] is 114%; with Glycine max [1] it was 89%.

For `C[C@H](CC[C@@H](O)[C@@H](O)[C@@H](O)CO[C@H]1[C@H](N)[C@@H](O)[C@H](O)[C@@]1(O)CO)[C@H]1CC[C@]2(C)[C@H]3CC[C@@H]4[C@@]5(C)CCCC(C)(C)[C@@H]5CC[C@@]4(C)[C@]3(C)CC[C@@H]12`, the Activity in the assay with Glycine max [6] is 250%; in the assay with Glycine max [1], 151%.

With `C[C@H](CC[C@@H](O)[C@@H](O)[C@@H](O)CO[C@@H]1O[C@H](CO)[C@@H](O)[C@H](O)[C@H]1N)[C@H]1CC[C@]2(C)[C@H]3CC[C@@H]4[C@@]5(C)CCCC(C)(C)[C@@H]5CC[C@@]4(C)[C@]3(C)CC[C@@H]12`, the Activity with Glycine max [6] was determined as 188%; in the assay with Glycine max [1], 172%.

Source of the values: ChEMBL document CHEMBL1158316, “Modulation of lipoxygenase activity by bacterial hopanoids” (J Nat Prod, 1997).
